These results are taken from US12071392B2, “Aminoadamantyl nitrate compounds and their use to treat CNS disorders” (Panorama Research, Inc., priority 2017, dated 2024).

Where two headings read alike, the source gives them in different places.

The term IC50 denotes the concentration at which inhibition is half-maximal.

For data set [1], the target named is T1, NMDA glutamate receptors NR1/NR2B encoded by the human GRIN1 and GRIN2B genes (Homo sapiens, UniProt Q05586+Q13224).
T1 construct: expressed in transfected cells
T1 sequence (Q13224 27-1484, other chains not shown): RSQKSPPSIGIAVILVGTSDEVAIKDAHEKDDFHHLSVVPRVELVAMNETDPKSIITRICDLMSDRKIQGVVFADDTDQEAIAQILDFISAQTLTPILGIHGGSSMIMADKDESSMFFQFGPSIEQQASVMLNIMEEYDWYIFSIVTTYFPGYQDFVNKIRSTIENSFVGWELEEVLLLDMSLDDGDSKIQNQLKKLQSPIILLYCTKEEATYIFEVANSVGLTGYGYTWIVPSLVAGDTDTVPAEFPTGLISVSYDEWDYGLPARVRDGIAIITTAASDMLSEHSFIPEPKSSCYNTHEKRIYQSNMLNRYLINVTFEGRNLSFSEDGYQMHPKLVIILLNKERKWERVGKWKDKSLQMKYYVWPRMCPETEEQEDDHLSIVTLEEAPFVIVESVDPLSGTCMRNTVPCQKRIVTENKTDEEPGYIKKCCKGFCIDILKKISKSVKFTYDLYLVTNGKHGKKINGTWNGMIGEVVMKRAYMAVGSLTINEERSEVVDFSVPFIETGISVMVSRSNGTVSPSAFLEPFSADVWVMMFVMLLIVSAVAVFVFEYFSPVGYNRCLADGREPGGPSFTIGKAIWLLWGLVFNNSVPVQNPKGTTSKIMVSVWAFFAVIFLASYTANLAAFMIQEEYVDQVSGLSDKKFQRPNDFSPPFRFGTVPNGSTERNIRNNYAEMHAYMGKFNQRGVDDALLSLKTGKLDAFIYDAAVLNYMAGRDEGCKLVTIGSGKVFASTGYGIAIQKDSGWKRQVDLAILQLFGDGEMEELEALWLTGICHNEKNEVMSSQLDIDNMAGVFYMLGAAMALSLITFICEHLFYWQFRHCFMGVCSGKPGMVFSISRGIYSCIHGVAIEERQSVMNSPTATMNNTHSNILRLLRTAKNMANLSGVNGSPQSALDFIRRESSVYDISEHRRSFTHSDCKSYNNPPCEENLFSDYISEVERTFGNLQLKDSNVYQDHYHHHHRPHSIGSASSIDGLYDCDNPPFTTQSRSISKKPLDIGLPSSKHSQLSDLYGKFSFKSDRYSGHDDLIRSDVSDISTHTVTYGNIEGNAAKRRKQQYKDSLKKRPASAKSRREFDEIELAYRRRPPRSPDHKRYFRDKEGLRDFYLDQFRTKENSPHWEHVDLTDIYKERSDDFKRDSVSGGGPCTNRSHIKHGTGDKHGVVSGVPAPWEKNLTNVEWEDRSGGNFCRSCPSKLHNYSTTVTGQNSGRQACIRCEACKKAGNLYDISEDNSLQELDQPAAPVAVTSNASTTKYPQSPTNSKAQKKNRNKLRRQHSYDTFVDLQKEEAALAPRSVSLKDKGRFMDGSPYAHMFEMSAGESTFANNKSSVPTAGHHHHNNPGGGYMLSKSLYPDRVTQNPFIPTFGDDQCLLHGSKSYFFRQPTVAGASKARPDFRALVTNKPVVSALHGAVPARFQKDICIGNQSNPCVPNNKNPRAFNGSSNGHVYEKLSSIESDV
Briefly: IonWorks Barracuda automated patch clamp, inhibition of NR1/NR2B receptors in HEK293 cells. Type of data set: cell-based. Particulars: for IC50: co-application with EC50 L-glutamate, −40 mV, 8-point concentration-response; for Effect on NR1/NR2B glutamate receptors (in words): patch clamp. The procedure:
Compounds were tested for inhibition of NMDA receptors using NMDA glutamate receptors NR1/NR2B encoded by the human GRIN1 and GRIN2B genes, expressed in HEK293 cells (originally from ATCC, Manassas, VA). Cells were maintained in tissue culture incubators, and stocks were maintained in cryogenic storage. Cells used for electrophysiology were plated in 150-mm plastic culture dishes. HEK293 cells were transfected with the appropriate ion channel or receptor cDNA(s) encoding NR1 and NR2B. Stable transfectants were selected using the G418 and Zeocin™-resistance genes incorporated into the expression plasmid. Selection pressure was maintained with G418 and Zeocin™ in the culture medium. Cells were cultured in Dulbecco's Modified Eagle Medium/Nutrient Mixture F-12 (D-MEM/F-12) supplemented with 10% fetal bovine serum, 100 U/mL penicillin G sodium, 100 μg/mL streptomycin sulfate, 100 μg/mL Zeocin™, 5 μg/mL blasticidin, and 500 μg/mL G418.
Test compounds were evaluated in 8-point concentration-response format (8 replicate wells/concentration). All test and control solutions contained 0.3% DMSO. The test article formulations were loaded in a 384-well plate using an automated liquid handling system (SciClone ALH3000, Caliper LifeScienses).
The effects of the test compounds were evaluated using the IonWorks® Barracuda™ Automated Patch Clamp System. Intracellular solution contained 50 mM CsCl, 90 mM CsF, 2 mM MgCl2, 5 mM EGTA, and 10 mM HEPES, pH 7.2. This solution was prepared in batches and stored refrigerated. In preparation for a recording session, the intracellular solution was loaded into the intracellular compartment of the PPC planar electrode. Extracellular solution (137 mM NaCl; 1.0 mM KCl; 5 mM CaCl2); 10 mM HEPES; 10 mM glucose; pH 7.4. Patch clamp measurements were made with a holding potential of −70 mV, and the potential during compound application was −40 mV. Extracellular buffer was loaded into the PPC plate wells (11 μL per well). Cell suspension was then pipetted into the wells (9 μL per well) of the PPC planar electrode. Whole-cell recording configuration was established via patch perforation with membrane currents recorded by on-board patch clamp amplifiers. […] The application consisted of two additions of 20 μL test solution containing antagonists at 10 μL/s (2 second total application time). First addition of 2× concentrated articles were preapplied for 5 minutes before the second addition of 1× concentrated articles. Data acquisition was performed via the IonWorks® Barracuda™ software, and data was analyzed using Microsoft Excel (Microsoft Corp., Redmond, WA). Concentration-response data was fitted to a Hill equation of the following form: RESPONSE=Base+[(Max−Base)/(1+(xhalf/x)^rate)] where Base is the response at low concentrations of test article, Max is the maximum response at high concentrations, xhalf is the EC50, or IC50, the concentration of test article producing either half-maximal activation or inhibition, and rate is the Hill coefficient. Nonlinear least squares fits were made assuming a simple binding model. Fits were weighted by the standard deviation. No assumptions about the fit parameters were made; the fit parameters were determined by the algorithm.

The conditions of data set [2]: 7 days of infusion, cited from earlier work.
[3] abbreviates: read-out: Steady state current IC50.

As for `CC12CC3CC(CN)(C1)CC(O[N+](=O)[O-])(C3)C2` (stereo not drawn) [Cmpd 5], the IC50 in data set [1] (read-out: Peak current IC50) was 11.2 µM; in data set [1] (setting [3]) it was 7.18 µM. The corresponding values for `NCC1(c2cccc(OCCCO[N+](=O)[O-])c2)C2CC3CC(C2)CC1C3` (stereo not drawn) [Cmpd 4] are 35.2 µM and 34.2 µM.

For the compound `CC12CC3CC(C)(C1)CC(N)(C3)C2.Cl` [Memantine-HCl, Memantine, reference compound], the “Effect on NR1/NR2B glutamate receptors (in words)” value in data set [1] was “produced inhibition of the receptors”. For the same compound, the “whole brain concentration higher than free concentration in serum” value in data set [2] (20 mg/kg/day) is recorded as 44 fold. In the case of `CCC12CC3(N)CC(CC)(C1)CC(O[N+](=O)[O-])(C3)C2` [YQW-036, Nitrosynapsin, reference compound], the IC50 was 10.1 µM in data set [1] (read-out: Peak current IC50) and 6.8 µM in data set [1] (setting [3]).

Turning to `CCC12CC3CC(N)(C1)CC(CO[N+](=O)[O-])(C3)C2` (stereo not drawn) [NM-004, reference compound], the IC50 in data set [1] (read-out: Peak current IC50) came to 25.9 µM; in data set [1] (setting [3]) it was 21 µM.

Regarding `NCC1(c2cccc(O[N+](=O)[O-])c2)C2CC3CC(C2)CC1C3` (stereo not drawn) [Cmpd 2], the IC50 in data set [1] (read-out: Peak current IC50) was found to be 73.2 µM; in data set [1] (setting [3]), 47.4 µM. The corresponding values for `CCC(O[N+](=O)[O-])C12CC3(C)CC(C)(CC(CCN)(C3)C1)C2` (stereo not drawn) [Cmpd 3] are 8.01 µM and 5.08 µM.

Regarding `CC12CC3(C)CC(CN)(C1)CC(CO[N+](=O)[O-])(C2)C3` [Cmpd 1], the IC50 in data set [1] (read-out: Peak current IC50) amounted to 4.59 µM; in data set [1] (setting [3]), 2.62 µM.

As for `N[C@@H](CCC(=O)O)C(=O)O` [Glutamate CRC, L-glutamate, reference compound], the “Effect on NR1/NR2B glutamate receptors (in words)” value in data set [1] is listed as “stimulated the receptors”. As to `NC12CC3CC(CC(C3)C1)C2` [amantadine], the “whole brain concentration higher than free concentration in serum” value in data set [2] (100 mg/kg/day) is given as 16 fold.
